# Experimental data as given in USRE35801E, “Prophylactic and therapeutic composition for circulatory disorders and method of treatment” (priority 1985, dated 1998).
# Where “and” joins values, the source holds several entries; their conditions need not be identical. Identical values can stand only once.
# Assays:
# [1] = test system: lipid peroxidation (brain homogenate); experiment: Inhibitory action of lipid peroxidation in brain homogenate (TBA value); format: biochemical; conditions: inhibition of lipid peroxidation, rat brain homogenate, 37° C., 30 minutes
# Procedure: (1) Inhibitory action of lipid peroxidation (a) Preparation of brain homogenate By use of Wister-strain male rat, brain homogenate was prepared following the procedure as described below. […] Next, a brain perfusion was conducted through the tube with ice-cooled 50 mM phosphate-buffered physiological saline (pH 7.4) hereinafter referred to as "PBS"), and the whole brain was extirpated. After removal of cerebellum, the wet weight of cerebrum was measured and, with addition of 9-fold amount of PBS, it was broken by a Teflon homogenizer in ice-water to be homogenized. After the brain homogenate was subjected to centrifugation at 4° C. at 2200 rpm for 10 minutes, 0.3 ml of the supernatant was apportioned into a light-shielding test tube equipped with a ground stopper, to provide a brain homogenate for evaluation of medicine. (b) Evaluation of test medicine To the brain homogenate produced in (a), 0.6 ml of PBS and 10 μl of ethanolic solution of a test medicine were added (to a final concentration of 500 μM or a concentration at a common ratio of 3 between 0.3 and 100 μm), and the mixture was heated in a warm bath at 37° C. for 30 minutes. […] Also, the same operation was performed by addition of 10 μl of ethanol (blank) in place of 10 μl ethanolic solution of the test medicine for measurement of blank. […] After shaking for about 30 seconds, the mixture was subjected to centrifugation at 3000 rpm for 10 minutes, and the supernatant was provided as a sample for measurement of peroxidized lipid.
# [2] = test system: drowsy pattern of electroencephalogram induced by phenobarbital or pentobarbital sodium salt; experiment: Antagonistic action against drowsy pattern of electroencephalogram induced by phenobarbital or pentobarbital sodium salt; format: in vivo, Wistar-strain male rat; conditions: Rattus norvegicus; intravenous, sodium salt; drowsy EEG after PHB 30 mg/kg or PBT 5 mg/kg; read-out: Antagonistic action at dose or higher
# Procedure: (2) Antagonistic action against drowsy pattern of so electroencephalogram induced by phenobarbital or pentobarbital sodium salt
# A Wistar-strain male rat weighing about 400 g was intramasculary administered with 0.6 mg of d-tubocurarine to be immobilized and, while maintaining the rectal temperature at 37° to 38° C. under artificial respiration, the electroencephalogram of the left cerebral frontal cortex was measured and recorded. Also, within the left femoral artery and vein, cannulas for measurement of artery pressure and for administration of medicine were placed, respectively.
# As the active ingredient of the present invention, sodium salt of the compound represented by Formula (I) was used and the respective doses of said active ingredient and 30 mg/kg of phenobarbital sodium salt (produced by Iwaki Seiyaku K.K.) (hereinafter called "PHB") or 5 mg/kg of pentobarbital sodium salt (hereinafter called PBT) were each dissolved in physiological saline and administered intravenously in a liquid amount of 1 ml/kg.
# The action of the active ingredient of the present invention affecting the cortex electroencephalogram after PHB or PBT administration was investigated as follows; Namely, at the time of 5 minutes or later after PHB or PBT administration when increase of the slow-wave component can be clearly recognized on electroencephalogram, 1, 3, 10, 30 and 100 mg/kg of the active ingredient were administered. To the control group 1 ml/kg of physiological saline was intravenously administered.
# Recording and analysis of electroencephalogram were continuously drawn together with artery pressure, heart rate and rectal temperature on the recorder through a multi-purpose monitoring recording device (model RM-85, produced by Nippon Koden K.K.). At the same time, electroencephalogram was recorded in data recorder (model A-65, produced by Sony K.K.), and compressed spectral array analysis was conducted by means of a computer for medical data processing (ATAC-450, produced by Nippon Koden K.K.).
# [3] = test system: cerebral ischemia recirculation model; experiment: Protective action in cerebral ischemia recirculation model; format: in vivo, Wistar-strain male rat; parameters: key to Presence of electroencephalogram restoration / Judgement of action: The case when restoration of electroencephalogram is judged as +; case when not recognized as -
# Procedure: (3) Protective action in cerebral ischemia recirculation model
# A Wistar-strain male rat weighing about 400 g was administered intramascularly with 0.6 mg of di-tubocurarine to be immobilized and, after a trachea cannulation, the head portion was fixed under artificial respiration on a stereotaxic device. The head skin was cut open, cranial bone was bored, and then bipolar electrode for lead-out of electroencephalogram were placed on the surface of the subdural left frontal cerebral cortex. After the electrode was fixed with the cranial bone by use of dental cement, the animal was held on its back. Next, a cannula for measurement of systemic pressure was placed within the left femoral artery, and a cannula for additional administration of d-tubocurarine within the left femoral vein, respectively. The heart rate was measured and recorded by driving a heart rate meter with the artery wave.
# After blood pressure, heart rate and various parameters of electroencephalogram were stabilized, 10 mg/kg of the active ingredient of the present invention prepared in a suspension so as to give 1 ml/kg in 1% tragacanth gum solution was administered directly into duodenum […]. To the control group, only the 1% tragacanth gum solution of the same volume was administered similarly.
# Ten to twenty minutes after administration of the medicine, while monitoring the electroencephalogram, blood pressure and heart rate on a multi-purpose monitoring recording device (RM-85 model, produced by Nippon Koden K.K.), the following operations were performed according to the methods shown below for cerebral ischemia loading.
# First, ribs were set free at the left costicartilage end to open the chest. Next, cerebral blood flow was blocked for ten minutes by obstructing the left common carotid artery and the left subclavian artery exposed at the aorta originating portion at the same time, and then the brachiocephalic trunk by use of artery clips 30 minutes after administration of the medicine.
# Recirculation of cerebral blood flow was effected by releasing at the same time the two artery clips mounted on the respective sites as mentioned above.
# The protective action of the medicine for the disorder after recirculation of cerebral ischemia was examined by the presence of restoration of electroencephalogram, and survival time of animal after the recirculation.
# During the experiment, the rectal temperature of the animal was maintained at 37° to 38° C. by use of a warming mat. Also, the rectal temperature was continuously drawn on the recorder together with electroencephalogram, femoral artery pressure and heart rate.
# [4] = test system: cerebral ischemia recirculation model; experiment: as above; format: in vivo, Wistar-strain male rat; parameters: key to Judgement of action: The case when restoration of electroencephalogram is judged as +; case when not recognized as -; conditions: 3 mg/kg
# mouse = mouse intraperitoneal administration; cited from earlier work
# [5] = National Cancer Institute Report, 1978; cited from earlier work
# rat = rat oral administration; cited from earlier work
compound,measurement,setting,value
"CC1=NN(c2ccccc2)C(=O)C1 [Compound 1, 3-methyl-1-phenyl-2-pyrazolin-5-one]",IC50,[1],18.2 µM
same,minimal effective dose,[2],≥ 1 mg/kg
same,Presence of electroencephalogram restoration,"[3]; 10 mg/kg into duodenum, 10 min cerebral ischemia (Table 3)",+
same,"Survival time after recirculation, average","[3]; 10 mg/kg, average",117 min
same,Judgement of action,"[3]; 10 mg/kg, individual animal",+
same,Presence of electroencephalogram restoration,"[3]; 10 mg/kg, individual animal",+
same,Survival time after recirculation,"[3]; 10 mg/kg, individual animal",46 min and 140 min and 164 min
same,electroencephalogram restoration during recirculation period (in words),[3]; active ingredient group,electroencephalogram appeared by restoration during recirculation period depending on the dose of 3 to 10 mg/kg
same,survival time of animals after recirculation (in words),[3]; active ingredient group,clearly elongated
same,"Survival time after recirculation, average",[4]; average,106 min
same,Judgement of action,[4]; individual animal,+ and -
same,Survival time after recirculation,[4]; individual animal,85 min and 126 min
same,LD50,mouse,2012 mg/kg
same,carcinogenicity,[5],free from carcinogenicity
same,LD50,rat,3500 mg/kg
